Measurements taken from patent publication US6472348B1, “Pyridone derivatives and herbicides” (Kumiai Chemical Industry Co., Ltd., priority 1996, dated 2002).

Experiments:
Assay type in all cases: in vivo
soybean (Gl) = experiment: Test Example 6: crop plant selectivity by upland field soil treatment (soybean), phytotoxicity; set-up: scale not given here; conditions: dose 1.6 g ai/10a, 21st day after application
Method in brief: (§1)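 Seeds are sown in sand and covered with soil. The soil is treated with test compound. Pots are kept in a greenhouse. Weed control and soybean damage are rated visually 21 days after application.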

rice flatsedge (Ci) [1] = experiment: Test Example 2: herbicidal effects by upland field soil treatment; conditions: 100 g of the active ingredient per 10 ares, 21st day after the application, index 0-5 of Table 47;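 further: grade of growth control; 5 = at least 90%; 4 = 70 to 90%; 3 = 50 to 70%; 2 = 30 to 50%; 1 = 10 to 30%; 0 = under 10%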
Description: (§2) (Test on Herbicidal Effects by Upland Field Soil Treatment)

[2] = tested on: common lambsquarters (Ch); experiment: as above; conditions: 100 g of the active ingredient per 10 ares, 21st day after the application, index 0-5 of Table 47
Description: as §2

pale smartweed (Po) [3] = experiment: as above; conditions: 100 g of the active ingredient per 10 ares, 21st day after the application, index 0-5 of Table 47
Description: as §2

slender amaranth (Am) [4] = experiment: as above; conditions: 100 g of the active ingredient per 10 ares, 21st day after the application, index 0-5 of Table 47
Description: as §2

barnyardgrass (Ec) [5] = experiment: as above; conditions: 100 g of the active ingredient per 10 ares, 21st day after the application, index 0-5 of Table 47
Description: as §2

Digitaria ciliaris (Di) = experiment: as above; conditions: 100 g of the active ingredient per 10 ares, 21st day after the application, index 0-5 of Table 47;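 further: grade of growth control; 5 = at least 90%; 4 = 70 to 90%; 3 = 50 to 70%; 2 = 30 to 50%; 1 = 10 to 30%; 0 = under 10%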
Description: as §2

Diaitaria ciliaris (Di) [6] = experiment: Test Example 4: crop plant selectivity by upland field soil treatment (cotton), herbicidal effects; conditions: dose 6.3 g ai/10 a, evaluated 21st day after application
Experimental: (Test on Crop Plant Selectivity by Upland Field Soil Treatment)
In a plastic pot (surface area: 600 cm^2) filled with sand, cotton (Go), Diaitaria ciliaris (Di), green foxtail (Se), pale smartweed (Po), slender amaranth (Am), common lambsquarters (Ch) and China jute (Ab) were sown and covered with soil. […] The plants were then cultured in a green house, and the evaluation of the herbicidal effects and phytotoxicity was conducted on the 21st day after the application in accordance with the standards as identified in Table 47. Symbol—represents “not tested”.

wheat (Tr) = experiment: Test Example 5: crop plant selectivity by upland field soil treatment (wheat), phytotoxicity; set-up: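 grade of crop injury; 5 = at least 90%; 4 = 70 to 90%; 3 = 50 to 70%; 2 = 30 to 50%; 1 = 10 to 30%; 0 = under 10%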; conditions: dose 1.6 g ai/10a, 21st day after application
Method in brief: (§3)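 Scores are visual ratings of herbicidal effect or wheat phytotoxicity, recorded on the 21st day after soil treatment of pots sown with wheat and weeds and kept in a greenhouse.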

rice flatsedge (Ci) [7] = experiment: Test Example 3: herbicidal effects by upland field foliage treatment; set-up: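 grade of growth control; 5 = at least 90%; 4 = 70 to 90%; 3 = 50 to 70%; 2 = 30 to 50%; 1 = 10 to 30%; 0 = under 10%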; conditions: 100 g of the active ingredient per 10 ares, evaluated on the 14th day after treatment
Method in brief: (§4)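 Using plants cultured for 2 weeks in a greenhouse from seed sown in soil-covered sand (pots 120 cm^2), the compounds were applied to foliage, and weed control was graded by standard criteria 14 days thereafter.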

[8] = tested on: common lambsquarters (Ch); experiment: as above; set-up: scale not given here; conditions: 100 g of the active ingredient per 10 ares, evaluated on the 14th day after treatment
Method in brief: as §4

Diaitaria ciliaris (Di) [9] = experiment: as above; set-up: scale not given here; conditions: 100 g of the active ingredient per 10 ares, evaluated on the 14th day after treatment
Method in brief: as §4

pale smartweed (Po) [10] = experiment: as above; set-up: scale not given here; conditions: 100 g of the active ingredient per 10 ares, evaluated on the 14th day after treatment
Method in brief: as §4

slender amaranth (Am) [11] = experiment: as above; set-up: scale not given here; conditions: 100 g of the active ingredient per 10 ares, evaluated on the 14th day after treatment
Method in brief: as §4

barnyardgrass (Ec) [12] = experiment: as above; set-up: scale not given here; conditions: 100 g of the active ingredient per 10 ares, evaluated on the 14th day after treatment
Method in brief: as §4

monochoria (Mo) = experiment: Test Example 1: herbicidal effects by paddy field soil treatment; conditions: 100 g of the active ingredient per 10 ares, 21st day after the application, index 0-5 of Table 47;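 further: grade of growth control; 5 = at least 90%; 4 = 70 to 90%; 3 = 50 to 70%; 2 = 30 to 50%; 1 = 10 to 30%; 0 = under 10%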
Method in brief: (§5)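 Scoring of herbicidal effect came 21 days after application of 100 g active ingredient per 10 ares to flooded (3 cm) paddy-soil pots sown with barnyardgrass, monochoria and bulrush, kept in a greenhouse.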

bulrush (Sc) = experiment: as above; conditions: 100 g of the active ingredient per 10 ares, 21st day after the application, index 0-5 of Table 47;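 further: grade of growth control; 5 = at least 90%; 4 = 70 to 90%; 3 = 50 to 70%; 2 = 30 to 50%; 1 = 10 to 30%; 0 = under 10%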
Method in brief: as §5

barnyardgrass (Ec) [13] = experiment: as above; conditions: 100 g of the active ingredient per 10 ares, 21st day after the application, index 0-5 of Table 47
Method in brief: as §5

[14] = tested on: common lambsquarters (Ch); experiment: Test Example 7: crop plant selectivity by upland field soil treatment (corn), herbicidal effects; set-up: scale not given here; conditions: dose 1.6 g ai/10a, 21st day after application
Method in brief: (§6)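 Values are ratings of herbicidal effect and phytotoxicity on a standard scale, taken 21 days after application. Test species were sown together with corn in sand-filled pots, covered with soil, and grown in a greenhouse.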

China jute (Ab) [15] = experiment: as above; set-up: scale not given here; conditions: dose 1.6 g ai/10a, 21st day after application
Method in brief: as §6

pale smartweed (Po) [16] = experiment: as above; set-up: scale not given here; conditions: dose 1.6 g ai/10a, 21st day after application
Method in brief: as §6

slender amaranth (Am) [17] = experiment: as above; set-up: scale not given here; conditions: dose 1.6 g ai/10a, 21st day after application
Method in brief: as §6

green foxtail (Se) [18] = experiment: as above; set-up: scale not given here; conditions: dose 1.6 g ai/10a, 21st day after application
Method in brief: as §6

[19] = tested on: common lambsquarters (Ch); experiment: Test Example 6: crop plant selectivity by upland field soil treatment (soybean), herbicidal effects; set-up: scale not given here; conditions: dose 1.6 g ai/10a, 21st day after application
Method in brief: as §1

China jute (Ab) [20] = experiment: as above; set-up: scale not given here; conditions: dose 1.6 g ai/10a, 21st day after application
Method in brief: as §1

pale smartweed (Po) [21] = experiment: as above; set-up: scale not given here; conditions: dose 1.6 g ai/10a, 21st day after application
Method in brief: as §1

slender amaranth (Am) [22] = experiment: as above; set-up: scale not given here; conditions: dose 1.6 g ai/10a, 21st day after application
Method in brief: as §1

green foxtail (Se) [23] = experiment: as above; set-up: scale not given here; conditions: dose 1.6 g ai/10a, 21st day after application
Method in brief: as §1

corn (Ze) = experiment: Test Example 7: crop plant selectivity by upland field soil treatment (corn), phytotoxicity; set-up: scale not given here; conditions: dose 1.6 g ai/10a, 21st day after application
Method in brief: as §6

cotton (Go) = experiment: Test Example 4: crop plant selectivity by upland field soil treatment (cotton), phytotoxicity; set-up: scale not given here; conditions: evaluated 21st day after application
Method in brief: (§7)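 Upland soil treatment: crop and weed seeds in sand pots under a soil cover, compound applied to soil, greenhouse-grown, rated visually 21 d later.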

[24] = tested on: common lambsquarters (Ch); experiment: Test Example 5: crop plant selectivity by upland field soil treatment (wheat), herbicidal effects; set-up: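 grade of growth control; 5 = at least 90%; 4 = 70 to 90%; 3 = 50 to 70%; 2 = 30 to 50%; 1 = 10 to 30%; 0 = under 10%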; conditions: dose 1.6 g ai/10a, 21st day after application
Method in brief: as §3

China jute (Ab) [25] = experiment: as above; set-up: scale not given here; conditions: dose 1.6 g ai/10a, 21st day after application
Method in brief: as §3

pale smartweed (Po) [26] = experiment: as above; set-up: scale not given here; conditions: dose 1.6 g ai/10a, 21st day after application
Method in brief: as §3

slender amaranth (Am) [27] = experiment: as above; set-up: scale not given here; conditions: dose 1.6 g ai/10a, 21st day after application
Method in brief: as §3

green foxtail (Se) [28] = experiment: as above; set-up: scale not given here; conditions: dose 1.6 g ai/10a, 21st day after application
Method in brief: as §3

[29] = tested on: common lambsquarters (Ch); experiment: Test Example 4: crop plant selectivity by upland field soil treatment (cotton), herbicidal effects; set-up: scale not given here; conditions: evaluated 21st day after application
Method in brief: as §7

China jute (Ab) [30] = experiment: as above; set-up: scale not given here; conditions: evaluated 21st day after application
Method in brief: as §7

pale smartweed (Po) [31] = experiment: as above; set-up: scale not given here; conditions: evaluated 21st day after application
Method in brief: as §7

slender amaranth (Am) [32] = experiment: as above; set-up: scale not given here; conditions: evaluated 21st day after application
Method in brief: as §7

green foxtail (Se) [33] = experiment: as above; set-up: scale not given here; conditions: evaluated 21st day after application
Method in brief: as §7

COc1cc(-c2ccc(C(F)(F)F)n(C)c2=O)c(F)cc1Cl [1-15]
Phytotoxicity Gl (soybean (Gl)): 2 | Herbicidal effects Ci (rice flatsedge (Ci) [1]): 5 | Herbicidal effects Ch [2]: 5 | Herbicidal effects Po (pale smartweed (Po) [3]): 5 | Herbicidal effects Am (slender amaranth (Am) [4]): 5 | Herbicidal effects Ec (barnyardgrass (Ec) [5]): 5 | Herbicidal effects Di (Digitaria ciliaris (Di)): 5 | Herbicidal effects Di (Diaitaria ciliaris (Di) [6]): 5 | Phytotoxicity Tr (wheat (Tr)): 2 | Herbicidal effects Ci (rice flatsedge (Ci) [7]): 5 | Herbicidal effects Ch [8]: 5 | Herbicidal effects Di (Diaitaria ciliaris (Di) [9]): 5 | Herbicidal effects Po (pale smartweed (Po) [10]): 5 | Herbicidal effects Am (slender amaranth (Am) [11]): 5 | Herbicidal effects Ec (barnyardgrass (Ec) [12]): 5 | Herbicidal effects Mo (monochoria (Mo)): 5 | Herbicidal effects Sc (bulrush (Sc)): 5 | Herbicidal effects Ec (barnyardgrass (Ec) [13]): 5 | Herbicidal effects Ch [14]: 5 | Herbicidal effects Ab (China jute (Ab) [15]): 5 | Herbicidal effects Po (pale smartweed (Po) [16]): 5 | Herbicidal effects Am (slender amaranth (Am) [17]): 5 | Herbicidal effects Se (green foxtail (Se) [18]): 5 | Herbicidal effects Ch [19]: 5 | Herbicidal effects Ab (China jute (Ab) [20]): 5 | Herbicidal effects Po (pale smartweed (Po) [21]): 5 | Herbicidal effects Am (slender amaranth (Am) [22]): 5 | Herbicidal effects Se (green foxtail (Se) [23]): 5 | Phytotoxicity Ze (corn (Ze)): 1 | Phytotoxicity Go (cotton (Go); dose 1.6 g ai/10 a): 0 | Phytotoxicity Go (cotton (Go); dose 6.3 g ai/10 a): 1 | Herbicidal effects Ch [24]: 5 | Herbicidal effects Ab (China jute (Ab) [25]): 5 | Herbicidal effects Po (pale smartweed (Po) [26]): 5 | Herbicidal effects Am (slender amaranth (Am) [27]): 5 | Herbicidal effects Se (green foxtail (Se) [28]): 5 | Herbicidal effects Ch ([29]; dose 1.6 g ai/10 a): 5 | Herbicidal effects Ch ([29]; dose 6.3 g ai/10 a): 5 | Herbicidal effects Ab (China jute (Ab) [30]; dose 1.6 g ai/10 a): 5 | Herbicidal effects Ab (China jute (Ab) [30]; dose 6.3 g ai/10 a): 5 | Herbicidal effects Po (pale smartweed (Po) [31]; dose 1.6 g ai/10 a): 5 | Herbicidal effects Po (pale smartweed (Po) [31]; dose 6.3 g ai/10 a): 5 | Herbicidal effects Am (slender amaranth (Am) [32]; dose 1.6 g ai/10 a): 5 | Herbicidal effects Am (slender amaranth (Am) [32]; dose 6.3 g ai/10 a): 5 | Herbicidal effects Se (green foxtail (Se) [33]; dose 1.6 g ai/10 a): 5 | Herbicidal effects Se (green foxtail (Se) [33]; dose 6.3 g ai/10 a): 5
